According to patent publication US8846898B2, “Phosphinoamidite carboxylates and analogs thereof in the synthesis of oligonucleotide having reduced internucleotide charge” (Lieure Cornu LLC, priority 2000, dated 2014):
[pace] = phosphonoacetate internucleotide linkage

What was measured:
DNase I = DNase I (Bos taurus, UniProt P00639)
Experimental: Radiolabeling of Oligodeoxynucleotides: ODNs were 5′ end-labeled using γ-^32P ATP and T4 polynucleotide kinase (Wu et al., “Purification and Sequence Analysis of Synthetic Oligodeoxyribonucleotides,” in Oligonucleotide Synthesis: A Practical Approach, Gait, Ed. (Oxford University Press, 1990)). […] The radiolabeled ODNs were purified by gel electrophoresis and ethanol precipitation.
Endonuclease Stability: Endonuclease digestion experiments were carried out using DNase I (Boehringer-Mannheim). The assays were performed using a mixture of oligodeoxynucleotide labeled with ^32P at the 5′-end (100,000 cpm) and unlabeled oligodeoxynucleotide (40 pmol) in a buffer containing 40 mM Tris-HCl, pH 7.5, 6 mM MgCl2. Slight excess of the complementary DNA strand (1.2 eq.) was added and the mixture was heated to 95° C. for 5 minutes then chilled on ice for 30 minutes. Enzyme was added to a final concentration of 1 unit/μl (40 μl total reaction volume). The reaction mixture was overlayed with 25 μl of mineral oil and incubated at 37° C. Aliquots (3.5 μl) were removed and quenched by adding 7M urea in TBE buffer (12 μl) and heating to 95° C. for 5 minutes. […]
The mixtures were heated to 95° C. for 5 minutes followed by slow cooling and incubation on ice for 30 minutes. The mixture was equilibrated to room temperature, DNase I added, and the reaction monitored as a function of time. […]

[1] = test system: Phosphodiesterase I from Crotalus adamanteu (snake venom phosphodiesterase)
E. coli RNaseH1 = E. coli RNaseH1 (Escherichia coli, UniProt P0A7Y4); assay: Hydrolysis of RNA heteroduplexes with E. coli RNaseH1; type: biochemical; conditions: 5′-32P RNA, two units RNaseH1, four hours at 37° C.
Sequence of E. coli RNaseH1 (P0A7Y4 whole entry): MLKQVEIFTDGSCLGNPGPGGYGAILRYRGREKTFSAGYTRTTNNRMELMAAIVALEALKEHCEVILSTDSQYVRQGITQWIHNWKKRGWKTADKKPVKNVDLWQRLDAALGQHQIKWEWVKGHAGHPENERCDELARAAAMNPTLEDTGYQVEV

Sequence of DNase I (P00639 23-282): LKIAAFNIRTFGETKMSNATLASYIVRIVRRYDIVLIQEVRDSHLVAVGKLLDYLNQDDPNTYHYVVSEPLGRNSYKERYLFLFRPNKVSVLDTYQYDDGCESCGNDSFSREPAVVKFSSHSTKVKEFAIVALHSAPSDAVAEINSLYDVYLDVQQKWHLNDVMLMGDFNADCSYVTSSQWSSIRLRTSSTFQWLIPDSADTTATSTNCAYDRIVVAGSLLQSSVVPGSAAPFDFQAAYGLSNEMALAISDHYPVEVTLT

phosphodiester ODN: 18-mer mixed sequence ODN 5′-CTCAAGTGGGCTGGTGAC-3′ containing internucleotide phosphodiester linkages (unmodified DNA) (unmodified DNA) [reference compound]
time to complete degradation by DNase I (DNase I): ≤ 1 h

phosphonoacetate ODN: 18-mer mixed sequence ODN 5′-CTCAAGTGGGCTGGTGAC-3′ containing internucleotide phosphonoacetate linkages (DNA, all [pace], methylation of C not given here)
degradation / hydrolysis products observed on exposure to SVP [1]: No detectable degradation products | RNA degraded (converted to hydrolysis products) in the presence of the oligonucleotide and RNaseH1 (E. coli RNaseH1): approximately 66% | degradation / hydrolysis products observed on incubation with DNase I (DNase I): no degradation products
